Reference: US12195482B1 (Arcus Biosciences, Inc., priority 2022, dated 2025)

How the values were obtained:
p-AXL = target: T1, p-AXL (Homo sapiens, UniProt P30530); assay: Axl phosphorylation inhibition ELISA in HEK293T cells transfected with NanoLuc-tagged AXL; assay type: cell-based; details: 1 h compound incubation, media (OptiMEM)
T1 construct: expressed in transfected cells; host or cells: HEK293T
T1 sequence (P30530 26-894): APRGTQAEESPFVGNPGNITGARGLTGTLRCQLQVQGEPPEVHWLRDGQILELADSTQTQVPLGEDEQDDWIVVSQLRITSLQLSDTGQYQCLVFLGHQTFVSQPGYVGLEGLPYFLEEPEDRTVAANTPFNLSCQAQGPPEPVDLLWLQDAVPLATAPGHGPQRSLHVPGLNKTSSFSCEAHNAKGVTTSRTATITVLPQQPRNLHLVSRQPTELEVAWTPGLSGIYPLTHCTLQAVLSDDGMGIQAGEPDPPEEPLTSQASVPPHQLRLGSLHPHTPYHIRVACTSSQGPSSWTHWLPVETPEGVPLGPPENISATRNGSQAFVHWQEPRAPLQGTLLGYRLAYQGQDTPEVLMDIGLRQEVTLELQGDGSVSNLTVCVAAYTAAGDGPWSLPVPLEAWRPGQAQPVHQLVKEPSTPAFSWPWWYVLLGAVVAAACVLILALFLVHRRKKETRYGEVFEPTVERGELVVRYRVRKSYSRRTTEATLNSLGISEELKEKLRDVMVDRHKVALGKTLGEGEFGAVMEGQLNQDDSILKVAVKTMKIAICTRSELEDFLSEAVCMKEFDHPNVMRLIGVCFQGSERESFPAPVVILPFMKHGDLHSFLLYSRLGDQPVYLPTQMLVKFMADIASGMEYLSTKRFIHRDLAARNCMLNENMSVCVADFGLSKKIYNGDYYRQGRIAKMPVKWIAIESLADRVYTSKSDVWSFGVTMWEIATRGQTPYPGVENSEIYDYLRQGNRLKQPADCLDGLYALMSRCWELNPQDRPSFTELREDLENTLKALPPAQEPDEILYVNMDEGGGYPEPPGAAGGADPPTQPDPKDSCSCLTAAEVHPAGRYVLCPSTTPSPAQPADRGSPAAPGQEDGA
Method in brief: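 Phospho-AXL detected by luminescence of NanoLuc tag after capture of cell lysate on biotinylated anti-phospho-tyrosine mAb plates (2 h). Lysates came from transiently transfected HEK293T cells treated 1 h at 37° C with serial 2-fold dilutions (22 points). IC50 by standard 4-parameter logistic fitting.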

Axl = target: T2, Axl (Homo sapiens, UniProt P30530); assay: Biochemical potency, HTRF KinEASE-TK kinase assay; parameters: purchased Invitrogen; details: 5 nM AXL, 700 μM ATP
T2 sequence (P30530 26-894): T1 sequence (P30530 26-894)
Method in brief: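 Phosphorylation of a biotinylated tyrosine-kinase peptide (800 nM) by AXL (5 nM) or TYRO3/MER (1 nM) is measured at 700 µM ATP after 2 h at room temperature, following 1 h enzyme–compound preincubation. Signal is the time-resolved FRET ratio, converted to percent activity.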

Cc1cnc(-c2ccc(-c3c[nH]c4ncc(-c5ccc6c(c5)CC[C@@H](N5C7COCC5C7)CC6)cc34)cc2)c(C)n1 [Example 50, 6-[(7S)-2-{3-[4-(3,5-Dimethylpyrazin-2-yl)phenyl]-1H-pyrrolo[2,3-b]pyridin-5-yl}-6,7,8,9-tetrahydro-5H-benzo[7]annulen-7-yl]-3-oxa-6-azabicyclo[3.1.1]heptane]
IC50 (p-AXL): < 0.1 µM | IC50 (Axl): < 0.1 µM
